Reference: patent publication US5521160A, “Sulfuric acid esters of sugar alcohols” (Hoffmann-La Roche Inc., priority 1994, dated 1996)
Where a name gives a salt, the structure may show the parent alone. Read-outs that look alike come from different tables or passages of the source.

Assays:
thrombin = biological target: T1, thrombin (Homo sapiens, UniProt P00734); test: biochemical; assay type: biochemical
T1 construct: purchased Roche, Basle (Thrombin Reagent)
Method: (§1) The blood coagulation-inhibiting activity was determined as follows:
Inhibition of Thrombin or Factor Xa in the Chromogenic Substrate Assay (Teien. et al., Thrombosis Research 10, 399-410 (1977)): The determination was effected in a Cobas-Bio centrifugal automatic spectrophotometer. The buffer solution used consisted of 50 mM Tris buffer, 180 mM NaCl, 7.5 mM EDTA Na2, 1% PEG 6000 and 0.02% Tween 80, pH 8.4. The test solution consisted of 50 μl of buffer, 30 μl of antithrombin III (1 U/ml, Kabi Diagnostica) and 20 μl of plasma which contained various concentrations of test compounds. 30 μl of sample solution and 20 μl of water with 180 μl of thrombin (1 U/ml, Thrombin Reagent Roche Basle) were added to the test cuvette in the automatic analyzer. After incubation at 37° C. for 240 seconds, 60 μl of S-2238 (H-D-Phe-Pip-Arg-NH.pNA, Kabi Diagnostica, Mondal, Sweden, 0.75 mM in water) and 20 μl of water were added. The liberation of pNA (p-nitroaniline) was followed during 60 seconds at 405 nm in 10 second intervals in comparison to water as the blank.

Factor Xa = biological target: T2, Factor Xa (Bos taurus, UniProt P00743); test: Inhibition of Factor Xa in the chromogenic substrate assay (blood coagulation inhibition); assay type: biochemical
T2 sequence (P00743 41-180 limits assumed): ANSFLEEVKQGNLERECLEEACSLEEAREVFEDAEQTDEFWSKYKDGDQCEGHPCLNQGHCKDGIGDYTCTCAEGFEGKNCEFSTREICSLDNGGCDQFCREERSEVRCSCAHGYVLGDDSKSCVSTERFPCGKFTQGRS
Method: as §1
Inhibition of Thrombin or Factor Xa in the Chromogenic Substrate Assay (Teien. et al., Thrombosis Research 10, 399-410 (1977)): The determination was effected in a Cobas-Bio centrifugal automatic spectrophotometer. The buffer solution used consisted of 50 mM Tris buffer, 180 mM NaCl, 7.5 mM EDTA Na2, 1% PEG 6000 and 0.02% Tween 80, pH 8.4. The test solution consisted of 50 μl of buffer, 30 μl of antithrombin III (1 U/ml, Kabi Diagnostica) and 20 μl of plasma which contained various concentrations of test compounds.
The inhibition of Factor Xa was measured in the same manner using a solution of Factor Xa (2.8 nkat/ml) and 2 mM S-2222 (Bz-CO-Ile-Glu-Arg-NH.pNA, Kabi Diagnostica) in water in place of thrombin or S-2238.

rat smooth muscle cells = test: Antiproliferative activity (growth inhibition of rat smooth muscle cells, relative to heparin); assay type: cell-based; conditions: 100 μg/ml, 48 hours, relative to heparin 100 μg/ml in same experiment
Method: The antiproliferative activity of a substance is expressed as the ri value which is a comparative value to the corresponding activity of heparin and which was determined in cell cultures as follows: rat smooth muscle cells were applied to cell culture plates in a density of 8×10^3 cells/well (medium: DMEM with 10% FCS. Cultivation at 37° C. and 5% CO2). After 4 hours the number of adhered cells was determined and the compounds to be tested (100 μg/ml, dissolved in H2 O) were added. The controls were a) cells to which test compound was not added and b) heparin (100 μg/ml). Subsequently, the cells were incubated for 48 hours and thereafter the cell count was determined once more.
The inhibition i of the cell growth, i.e. the percent reduction in the growth rate of the cells compared to the control, was calculated from these values: [formula] the growth rate μ being calculated as [formula] in which Z is the number of cells.
Finally, ri --the relative inhibitory activity--which expresses the activity of a substance (at 100 μg/ml) in comparison to the activity of heparin in the same concentration in the same experiment, was calculated: [formula]

[1] = chromogenic substrate S-2238, antithrombin III, plasma, pH 8.4, 37° C.; read-out: Anticoagulative Activity IC50 Thrombin
[2] = chromogenic substrate S-2222, antithrombin III, plasma; read-out: Anticoagulative Activity IC50 Factor Xa
[3] = pH 8.4; read-out: Anticoagulative Activity IC50 Thrombin
[4] = read-out: Anticoagulative Activity IC50 Thrombin; chromogenic substrate S-2238, antithrombin III, plasma, pH 8.4, 37° C.
[5] = read-out: Anticoagulative Activity IC50 Factor Xa; chromogenic substrate S-2222, antithrombin III, plasma

SMILES	IC50 (thrombin; [1]) [µM]	IC50 (Factor Xa; [2]) [µM]	Antiproliferative Activity ri (relative inhibitory activity compared with heparin) (rat smooth muscle cells)	IC50 (thrombin; [3]) [µM]	IC50 (thrombin; [4]) [µM]	IC50 (Factor Xa; [5]) [µM]
O=C(NC[C@H](OS(=O)(=O)O)[C@@H](OS(=O)(=O)O)[C@H](OS(=O)(=O)O)[C@@H](COS(=O)(=O)O)OS(=O)(=O)O)c1ccc(/C=C\c2ccc(C(=O)NC[C@H](OS(=O)(=O)O)[C@@H](OS(=O)(=O)O)[C@H](OS(=O)(=O)O)[C@@H](COS(=O)(=O)O)OS(=O)(=O)O)cc2)cc1 [Example 3, (Z)-stilbene-4,4'-dicarboxylic acid bis-(2,3,4,5,6-penta-O-sulfo-D-glucit-1-ylamide) decasodium salt]	> 717	> 717	1.5			
O=C(/C=C/C(=O)Nc1ccc(NC(=O)NC[C@H](OS(=O)(=O)O)[C@@H](OS(=O)(=O)O)[C@H](OS(=O)(=O)O)[C@@H](COS(=O)(=O)O)OS(=O)(=O)O)cc1)Nc1ccc(NC(=O)NC[C@H](OS(=O)(=O)O)[C@@H](OS(=O)(=O)O)[C@H](OS(=O)(=O)O)[C@@H](COS(=O)(=O)O)OS(=O)(=O)O)cc1 [Example 34, N,N'-bis-[4-[3-(2,3,4,5,6-penta-O-sulfo-D-glucit-1-yl)-ureido]-phenyl]-fumaramide decasodium salt]		> 662	0.4	> 662		
O=S(=O)(O)OC[C@@H](OS(=O)(=O)O)[C@@H](OS(=O)(=O)O)[C@H](OS(=O)(=O)O)[C@H](CNS(=O)(=O)c1cccc2c(S(=O)(=O)NC[C@H](OS(=O)(=O)O)[C@@H](OS(=O)(=O)O)[C@H](OS(=O)(=O)O)[C@@H](COS(=O)(=O)O)OS(=O)(=O)O)cccc12)OS(=O)(=O)O [Example 11, naphthalene-1,5-disulfonic acid bis-(2,3,4,5,6-penta-O-sulfo-D-glucit-1-ylamide) decasodium salt]	> 707	> 707	1.0			
O=C(Nc1ccc(Cc2ccc(NC(=O)c3ccc(NC[C@H](OS(=O)(=O)O)[C@@H](OS(=O)(=O)O)[C@H](OS(=O)(=O)O)[C@@H](COS(=O)(=O)O)OS(=O)(=O)O)c([N+](=O)[O-])c3)cc2)cc1)c1ccc(NC[C@H](OS(=O)(=O)O)[C@@H](OS(=O)(=O)O)[C@H](OS(=O)(=O)O)[C@@H](COS(=O)(=O)O)OS(=O)(=O)O)c([N+](=O)[O-])c1 [Example 68, 4,4'-bis-(2,3,4,5,6-penta-O-sulfo-D-glucit-1-ylamino)-3,3'-dinitro-N,N'-(4,4'-methylene-diphenyl)-dibenzamide decasodium salt]			1.1		> 604	> 604
O=C(Nc1ccc(OC[C@@H](OS(=O)(=O)O)[C@H](OS(=O)(=O)O)[C@@H](COS(=O)(=O)O)OS(=O)(=O)O)cc1)c1cccc(C(=O)Nc2ccc(OC[C@@H](OS(=O)(=O)O)[C@H](OS(=O)(=O)O)[C@@H](COS(=O)(=O)O)OS(=O)(=O)O)cc2)c1 [Example 12, N,N'-bis-[4-(2,3,4,5-tetra-O-sulfo-D-arabinit-1-yloxy)-phenyl]-isophthalamide octasodium salt]	> 795	> 795	0.9			
O=[N+]([O-])c1cc(S(=O)(=O)c2ccc(NC[C@H](OS(=O)(=O)O)[C@@H](OS(=O)(=O)O)[C@H](OS(=O)(=O)O)[C@@H](COS(=O)(=O)O)OS(=O)(=O)O)c([N+](=O)[O-])c2)ccc1NC[C@H](OS(=O)(=O)O)[C@@H](OS(=O)(=O)O)[C@H](OS(=O)(=O)O)[C@@H](COS(=O)(=O)O)OS(=O)(=O)O [Example 67, N,N'-bis-(2,3,4,5,6-penta-O-sulfo-D-glucit-1-yl)-2,2'-dinitro-4,4'-sulfonyldianiline decasodium salt]			1.0		> 682	> 682
O=C(NC[C@H](OS(=O)(=O)O)[C@@H](OS(=O)(=O)O)[C@H](OS(=O)(=O)O)[C@@H](COS(=O)(=O)O)OS(=O)(=O)O)Nc1ccc(NC(=O)c2ccc(C(=O)Nc3ccc(NC(=O)NC[C@H](OS(=O)(=O)O)[C@@H](OS(=O)(=O)O)[C@H](OS(=O)(=O)O)[C@@H](COS(=O)(=O)O)OS(=O)(=O)O)cc3)cc2)cc1 [Example 33, N,N'-bis-[4-[3-(2,3,4,5,6-penta-O-sulfo-D-glucit-1-yl)-ureido]-phenyl]-terephthalamide decasodium salt]		> 640	0.8	> 640		
O=C(Nc1ccc(OC[C@@H](OS(=O)(=O)O)[C@H](OS(=O)(=O)O)[C@H](OS(=O)(=O)O)[C@H](COS(=O)(=O)O)OS(=O)(=O)O)cc1)Nc1ccc(OC[C@@H](OS(=O)(=O)O)[C@H](OS(=O)(=O)O)[C@H](OS(=O)(=O)O)[C@H](COS(=O)(=O)O)OS(=O)(=O)O)cc1 [Example 65, 1,3-bis-[4-(2,3,4,5,6-penta-O-sulfo-D-galactit-6-yloxy)-phenyl]-urea decasodium salt]	> 728	> 728	0.8			
CN(C[C@H](OS(=O)(=O)O)[C@@H](OS(=O)(=O)O)[C@H](OS(=O)(=O)O)[C@@H](COS(=O)(=O)O)OS(=O)(=O)O)C(=O)c1ccc2c(c1)C(=O)c1cc(C(=O)N(C)C[C@H](OS(=O)(=O)O)[C@@H](OS(=O)(=O)O)[C@H](OS(=O)(=O)O)[C@@H](COS(=O)(=O)O)OS(=O)(=O)O)ccc1-2 [Example 37, 9-oxo-9H-fluorene-2,7-dicarboxylic acid bis-[methyl-(2,3,4,5,6-penta-O-sulfo-D-glucit-1yl)-amide] decasodium salt]	> 703	> 703	0.7			
CC(/C=C/C=C(\C)C(=O)NC[C@H](OS(=O)(=O)O)[C@@H](OS(=O)(=O)O)[C@H](OS(=O)(=O)O)[C@@H](COS(=O)(=O)O)OS(=O)(=O)O)=C\C=C\C=C(C)\C=C\C=C(/C)C(=O)NC[C@H](OS(=O)(=O)O)[C@@H](OS(=O)(=O)O)[C@H](OS(=O)(=O)O)[C@@H](COS(=O)(=O)O)OS(=O)(=O)O [Example 6, (2E,4E,6E,8E,10E,12E,14E)-2,6,11,15-tetramethyl-hexadeca-2,4,6,8,10,12,14-heptaenedicarboxylic acid bis-(2,3,4,5,6-penta-O-sulfo-D-glucit-1-ylamide) decasodium salt]	> 687	> 687	1.5			
O=C(NC[C@H](OS(=O)(=O)O)[C@@H](OS(=O)(=O)O)[C@H](OS(=O)(=O)O)[C@@H](COS(=O)(=O)O)OS(=O)(=O)O)c1ccc(Cc2ccc(C(=O)NC[C@H](OS(=O)(=O)O)[C@@H](OS(=O)(=O)O)[C@H](OS(=O)(=O)O)[C@@H](COS(=O)(=O)O)OS(=O)(=O)O)cc2)cc1 [Example 16, 4,4'-methylene-dibenzoic acid bis-(2,3,4,5,6-penta-O-sulfo-D-glucit-1-ylamide) decasodium salt]	> 723	> 723	0.7			
